Measurements reported in ChEMBL document CHEMBL1157572 (J Med Chem, 2010).

Experiments:
NCI-H460 = assay: Antiproliferative activity against human H460 cells after 72 hrs by methylene blue dye assay; format: functional, cell-based; settings: NCI-H460, 72 h
[1] = Antiproliferative activity against P-gp170/MDR expressing human KBVIN cells after 72 hrs by methylene blue dye assay; format: functional, cell-based
MKN-45 = assay: Antiproliferative activity against human MKN45 cells after 72 hrs by methylene blue dye assay; format: functional, cell-based; settings: MKN-45, 72 h
HT-29 = assay: Antiproliferative activity against human HT-29 cells after 72 hrs by methylene blue dye assay; format: functional, cell-based; settings: HT-29, 72 h
KB = assay: Antiproliferative activity against human KB cells after 72 hrs by methylene blue dye assay; format: functional, cell-based
[2] = Inhibition of tubulin polymerization by turbidimetric assay
[3] = Displacement of [3H]colchicine from tubulin by at 5 uM scintillation proximity assay
[4] = Displacement of [3H]colchicine from tubulin by at 1 uM scintillation proximity assay

Structure (SMILES)	IC50 (NCI-H460)	IC50 (MKN-45)	IC50 (HT-29)	IC50 (KB)	IC50 [1]	IC50 [2]	Activity [3]	Activity [4]
COc1cc(C(=O)c2cccc3ncccc23)cc(OC)c1OC	3800 nM	1200 nM	2800 nM	2900 nM	2300 nM	–	–	–
COc1cc(C(=O)c2cccc3cccnc23)cc(OC)c1OC	5000 nM	3200 nM	4500 nM	8100 nM	6000 nM	–	–	–
COc1ccc(/C=C\c2cc(OC)c(OC)c(OC)c2)cc1O [COMBRETASTATIN A4]	2.6 nM	4.9 nM	835 nM	2.4 nM	1.9 nM	2100 nM	95%	87%
COc1cc(C(=O)c2ccc3c(N)c(OC)ccc3n2)cc(OC)c1OC	0.4 nM	0.3 nM	0.4 nM	0.3 nM	0.2 nM	1600 nM	97%	90%
COc1cc(C(=O)c2ccc3cccnc3c2)cc(OC)c1OC	> 10000 nM	> 10000 nM	> 10000 nM	> 10000 nM	> 10000 nM	–	–	–
COc1cc(C(=O)c2ccnc3ccccc23)cc(OC)c1OC	3800 nM	920 nM	2300 nM	3500 nM	2200 nM	–	–	–
COc1cc(C(=O)c2ccc3c(ccc[n+]3C)c2)cc(OC)c1OC	> 10000 nM	> 10000 nM	> 10000 nM	> 10000 nM	> 10000 nM	–	–	–
COc1ccc2nc(C(=O)c3cc(OC)c(OC)c(OC)c3)ccc2c1	61.5 nM	150 nM	77 nM	27.2 nM	21.5 nM	3500 nM	68%	40%

The next lines start with results.

IC50 (NCI-H460)	IC50 (MKN-45)	IC50 (HT-29)	IC50 (KB)	Structure (SMILES)	IC50 [1]	IC50 [2]	Activity [3]	Activity [4]
1100 nM	617 nM	872 nM	830 nM	COc1cc(C(=O)c2ccc3c(ccc[n+]3[O-])c2)cc(OC)c1OC	764 nM	–	–	–
36 nM	16.3 nM	24.6 nM	24 nM	COc1cc(C(=O)c2ccc3ncccc3c2)cc(OC)c1OC	21.5 nM	2900 nM	72%	51%
180 nM	246 nM	148 nM	174 nM	COc1cc(C(=O)c2ccc3ccccc3n2)cc(OC)c1OC	117 nM	> 10000 nM	–	–
193 nM	147 nM	162 nM	155 nM	COc1cc(C(=O)c2ccnc3c(OC)cccc23)cc(OC)c1OC	165 nM	–	–	–
256 nM	138 nM	206 nM	301 nM	COc1ccc2cc(C(=O)c3cc(OC)c(OC)c(OC)c3)ccc2n1	202 nM	> 10000 nM	–	–
1600 nM	562 nM	1000 nM	1800 nM	COc1cc(C(=O)c2cnc3ccccc3c2)cc(OC)c1OC	1100 nM	–	–	–
